Consider ten compounds from patent US7695931B2, “Carotenoid hydroxylase gene, method for preparing hydroxylated carotenoid, and novel geranylgeranyl pyrophosphate synthase” (Kirin Holdings Kabushiki Kaisha, priority 2003, dated 2010).

In series [1] the test system is lipid peroxidation in rat brain homogenate. Put plainly: in vitro anti-peroxidation activity: lipid peroxidation in rat brain homogenate (TBA, A532). The settings on record: for IC50: concentration halving A532 vs non-addition group, ascorbic acid 100 μM, pH 7.4, 37° C., 1 hr, read-out: IC50 (μM), inhibitory effect on lipid peroxidation in rat brain homogenate; for inhibitory effect on lipid peroxidation (in words): rat brain homogenate, in vitro. Type of series: biochemical. The protocol: Although various carotenoids have a wide variety of physiological activities and effects, it is believed that activity to inhibit peroxidation of lipids in the living body caused by oxygen radicals is the basis for all activities/effects. Therefore, in vitro inhibitory effects of the two carotenoids synthesized in Example 14 on lipid peroxidation caused by free radicals were examined using rat brain homogenate. This assay was conducted basically according to the method of Kubo et al. (Kubo, K., Yoshitake, Y., Kumada, K., Shuto K., Nakamizo, N. “Radical scavenging action of flunarizine in rat brain in vitro”. Arch. Int. Pharmacodyn. Ther. 272, 283-295, 1984). Briefly, 0.05 ml of methanol solution of a test sample, 0.1 ml of 1 mM ascorbic acid (final concentration 100 μM) and 0.05 ml of H2O were added to 0.6 ml of 100 mM phosphate buffer (pH 7.4) and pre-incubated at 37° C. for 5 min. Then, 0.2 ml of 2.5% (w/v) rat brain homogenate was added thereto to start reaction, followed by incubation at 37° C. for 1 hr under shaking. One milliliter of a mixed solution containing 20% (w/v) trichloroacetic acid, 0.5% (w/v) 2-thiobarbituric acid and 0.2 N HCl was added to the above reaction solution to terminate the reaction. The resultant solution was boiled at 100 ° C. for 30 min for color development. After cooling, the solution was centrifuged at 3000 rpm for 5 min. Absorbance at 532 nm (A532) of the resultant supernatant was measured. The concentration of test sample which is required to decrease the A532 of test sample addition group to one half of the A532 of test sample non-addition group was calculated as IC50. This value was taken as lipid peroxidation inhibitory effect in rat brain homogenate.

In series [2] the test system is lung cancer. The settings on record: cited from earlier work; for incidence of lung cancer: carotenoid-administered mice, incidence in control mice without carotenoid administration taken as 100%.
Series [3] deals with liver cancer. The conditions noted are these: carotenoid-administered mice; incidence in control mice without carotenoid administration taken as 100%; cited from earlier work.
Series [4] has as its system skin cancer. The settings on record: carotenoid-administered mice; incidence in control mice without carotenoid administration taken as 100%; cited from earlier work.
For series [5] the following is noted: compared with β-carotene; cited from earlier work.

Take `CC1=C(/C=C/C(C)=C/C=C/C(C)=C/C=C/C=C(C)/C=C/C=C(C)/C=C/C2=C(C)CCCC2(C)C)C(C)(C)CCC1` [β-Carotene, β-carotene]: in series [1], the IC50 (usually the midpoint of a concentration-inhibition curve) was more than 100 µM. Besides, the “incidence of lung cancer” value in series [2] is 139%. Besides, the “incidence of liver cancer” value in series [3] is given as 70%.

As for `CC1=C(/C=C/C(C)=C/C=C/C(C)=C/C=C/C=C(C)/C=C/C=C(C)/C=C/C2=C(C)C(=O)[C@@H](O)CC2(C)C)C(C)(C)C[C@H](O)C1=O` [astaxanthin], in series [4], the “incidence of skin cancer” value is 100%. The “incidence of lung cancer” value in series [2] is 70%. In addition, in series [3], the “incidence of liver cancer” value is reported as 30%.

As for `CC1=C(/C=C/C(C)=C/C=C/C(C)=C/C=C/C=C(C)/C=C/C=C(C)/C=C/C2=C(C)C[C@@H](O)CC2(C)C)C(C)(C)CCC1` [β-cryptoxanthin], the “intake ratio into the living body relative to β-carotene” value in series [5] was 10 times.

On to `CC1=CCCC(C)(C)C1/C=C/C(C)=C/C=C/C(C)=C/C=C/C=C(C)/C=C/C=C(C)/C=C/C1=C(C)CCCC1(C)C` (stereo not drawn) [α-carotene], for which the “incidence of lung cancer” value in series [2] was 40%. Also, the “incidence of liver cancer” value in series [3] is listed as 50%.

As for fucoxanthin, in series [4], the “incidence of skin cancer” value is given as 10%. In addition, the “incidence of liver cancer” value in series [3] is recorded as 30%.

Regarding `CC1=C(/C=C/C(C)=C/C=C/C(C)=C/C=C/C=C(C)/C=C/C=C(C)/C=C/C2=C(C)C(=O)CCC2(C)C)C(C)(C)CCC1=O` [Canthaxanthin], in series [1], the IC50 turned out to be 50 µM.

Consider `CC(C)=CCC/C(C)=C/C=C/C(C)=C/C=C/C(C)=C/C=C/C=C(C)/C=C/C=C(C)/C=C/C=C(\C)CCC=C(C)C` [lycopene], for which the “incidence of skin cancer” value in series [4] was 10%. Moreover, in series [2] (comparison of the three carcinogenesis models), the “inhibition of lung cancer (in words)” value was “highly effective in inhibiting lung cancer”. The “incidence of liver cancer” value in series [3] is recorded as 100%.

Consider `CC1=C(/C=C/C(C)=C/C=C/C(C)=C/C=C/C=C(C)/C=C/C=C(C)/C=C/C2=C(C)C(=O)CC(O)C2(C)C)C(C)(C)CCC1=O` (single isomer, unassigned) [2-Hydroxycanthaxanthin, 2-hydroxy-β,β-carotene-4,4′-dione], for which, in series [1], the IC50 was 8.1 µM and the “inhibitory effect on lipid peroxidation (in words)” value is “strong inhibitory effects on lipid peroxidation”.

Regarding `CC1=C[C@H](O)CC(C)(C)[C@H]1/C=C/C(C)=C/C=C/C(C)=C/C=C/C=C(C)/C=C/C=C(C)/C=C/C1=C(C)C[C@@H](O)CC1(C)C` [lutein], the “incidence of lung cancer” value in series [2] is reported as 70%. Also, the “incidence of liver cancer” value in series [3] is reported as 50%.

Regarding `CC1=C(/C=C/C(C)=C/C=C/C(C)=C/C=C/C=C(C)/C=C/C=C(C)/C=C/C2=C(C)C(=O)CC(O)C2(C)C)C(C)(C)C(O)CC1=O` (single isomer, unassigned) [2,2′-Dihydroxycanthaxanthin, 2,2′-dihydroxy-β,β-carotene-4,4′-dione], in series [1], the IC50 was 4.8 µM and the “inhibitory effect on lipid peroxidation (in words)” value is recorded as “strong inhibitory effects on lipid peroxidation”.
